Measurements: patent US11339171B2, “MDM2 inhibitors” (Gan & Lee Pharmaceuticals, priority 2017, dated 2022)

How the values were obtained:
MDM2 = target: T1, MDM2 (Homo sapiens, UniProt Q00987); assay: Inhibition test of MDM2-P53 (GST-MDM2, Biotin-P53, Anti-GST-Tb, SA-XL665); assay type: binding; conditions: for inhibitory effect on MDM2 compared with positive control compound HDM201: labels are Example numbers, the compounds with S-configuration are meant
T1 construct: made in house
In short: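 Binding was measured by TR-FRET with GST-MDM2 at 4 nM final in PBS with 0.1% BSA, 5 mM DTT and 1 mM AEBSF. Compounds were tested as twelve-point 5-fold dilutions and incubated with the detection mix for 90 min at 25 °C with shaking before plate-reader reading and curve fitting.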

[1] = test system: human osteosarcoma cell line SJSA-1; assay: Inhibition of proliferation of human osteosarcoma cell line SJSA-1 (DAPI staining, In Cell Analyzer); conditions: for inhibitory effect on human osteosarcoma cell line SJSA-1 compared with positive control compound HDM201: labels are Example numbers, the compounds with S-configuration are meant; for IC50: Homo sapiens, SJSA-1, 72 h, read-out: IC50 (nM), inhibitory activity on proliferation of human osteosarcoma cell line SJSA-1, SJSA-1, incubated 72 h

T1 sequence (Q00987 whole entry): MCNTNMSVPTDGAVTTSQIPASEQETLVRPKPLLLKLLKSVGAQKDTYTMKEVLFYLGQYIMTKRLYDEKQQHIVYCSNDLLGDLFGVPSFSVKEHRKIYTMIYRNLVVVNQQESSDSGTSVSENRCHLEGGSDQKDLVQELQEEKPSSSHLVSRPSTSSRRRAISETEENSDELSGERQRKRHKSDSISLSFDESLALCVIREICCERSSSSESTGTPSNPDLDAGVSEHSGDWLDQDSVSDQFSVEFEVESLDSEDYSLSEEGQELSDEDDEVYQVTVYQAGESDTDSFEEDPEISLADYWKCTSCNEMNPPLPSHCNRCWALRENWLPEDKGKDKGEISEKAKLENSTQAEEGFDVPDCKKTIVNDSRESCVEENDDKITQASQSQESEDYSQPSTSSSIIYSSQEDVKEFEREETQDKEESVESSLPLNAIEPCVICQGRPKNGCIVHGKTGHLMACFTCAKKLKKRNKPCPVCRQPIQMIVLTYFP

Row | SMILES | inhibitory effect on MDM2 compared with positive control compound HDM201 (MDM2) | inhibitory effect on human osteosarcoma cell line SJSA-1 compared with positive control compound HDM201 [1] | IC50 (MDM2) [nM] | IC50 [1] [nM]
1 | COc1cc(C)ncc1-c1nc2c(n1C(C)C)C1(C(=O)Nc3cc(Cl)ccc31)N(c1cc(Cl)ccc1C)C2=O (centres unmarked) [Example 154, 6-chloro-5′-(5-chloro-2-methylphenyl)-3′-isopropyl-2′-(4-methoxy-6-methylpyridin-3-yl)-3′H-spiro[dihydroindole-3,4′-pyrrolo[3,4-d]imidazole]-2,6′(5′H)-dione] | better | better |  | 
2 | COc1cc(N)ccc1-c1nc2c(n1C(C)C)[C@@]1(C(=O)Nc3cc(Cl)ccc31)N(c1cc(F)cc(Cl)c1)C2=O [Example S-67, (S)-2′-(4-amino-2-methoxyphenyl)-6-chloro-5′-(3-chloro-5-fluorophenyl)-3′-isopropyl-3′H-spiro[dihydroindole-3,4′-pyrrolo[3,4-d]imidazole]-2,6′(5′H)-dione] |  |  | 1.22 | 20.8
3 | COc1cc(N(C)CCO)ccc1-c1nc2c(n1C(C)C)[C@@]1(C(=O)Nc3cc(Cl)ccc31)N(c1cc(Cl)ccc1C)C2=O [Example S-162, (S)-6-chloro-5′-(5-chloro-2-methylphenyl)-2′-(4-((2-hydroxyethyl)(methyl)amino)-2-methoxyphenyl)-3′-isopropyl-3′H-spiro[dihydroindole-3,4′-pyrrolo[3,4-d]imidazole]-2,6′(5′H)-dione] |  |  | 2.07 | 14.9
4 | COc1ncc(-c2nc3c(n2C(C)C)[C@@]2(C(=O)Nc4cc(Cl)ccc42)N(c2cccc(C)c2)C3=O)c(OC)n1 [Example S-55, (S)-6-chloro-2′-(2,4-dimethoxypyrimidin-5-yl)-3′-isopropyl-5′-(m-tolyl)-3′H-spiro[dihydroindole-3,4′-pyrrolo[3,4-d]imidazole]-2,6′(5′H)-dione] |  |  | 4.25 | 117
5 | COc1nc(N)ncc1-c1nc2c(n1C(C)C)[C@@]1(C(=O)Nc3cc(Cl)ccc31)N(c1cc(Cl)ccc1C)C2=O [Example S-90, (S)-2′-(2-amino-4-methoxypyrimidin-5-yl)-6-chloro-5′-(5-chloro-2-methylphenyl)-3′-isopropyl-3′H-spiro[dihydroindole-3,4′-pyrrolo[3,4-d]imidazole]-2,6′(5′H)-dione] |  |  | 1.38 | 255
6 | CCOc1cc(OC)c(-c2nc3c(n2C(C)C)[C@@]2(C(=O)Nc4cc(Cl)ccc42)N(c2cccc(Cl)c2)C3=O)cn1 [Example S-102, (S)-6-chloro-5′-(3-chlorophenyl)-2′-(6-ethoxy-4-methoxypyridin-3-yl)-3′-isopropyl-3′H-spiro[dihydroindole-3,4′-pyrrolo[3,4-d]imidazole]-2,6′(5′H)-dione] |  |  | 2.01 | 57.4
7 | COc1ccc(-c2nc3c(n2C(C)C)[C@]2(C(=O)Nc4cc(Cl)ccc42)N(c2cc(Cl)ccc2C)C3=O)c(OC)n1 [Example R-8, (R)-6-chloro-5′-(5-chloro-2-methylphenyl)-2′-(2,6-dimethoxypyridin-3-yl)-3′-isopropyl-3′H-spiro[dihydroindole-3,4′-pyrrolo[3,4-d]imidazole]-2,6′(5′H)-dione] |  |  | 329 | 2290
8 | COc1ncc(-c2nc3c(n2C(C)C)[C@@]2(C(=O)Nc4cc(Cl)ccc42)N(c2cc(C)cc(Cl)c2)C3=O)c(OC)n1 [Example S-51, (S)-6-chloro-5′-(3-chloro-5-methylphenyl)-2′-(2,4-dimethoxypyrimidin-5-yl)-3′-isopropyl-3′H-spiro[dihydroindole-3,4′-pyrrolo[3,4-d]imidazole]-2,6′(5′H)-dione] |  |  | 4.36 | 62.6
9 | CNc1ccc(-c2nc3c(n2C(C)C)[C@@]2(C(=O)Nc4cc(Cl)ccc42)N(c2cc(Cl)ccc2C)C3=O)c(OC)c1 [Example S-25, (S)-6-chloro-5′-(5-chloro-2-methylphenyl)-3′-isopropyl-2′-(2-methoxy-4-(methylamine)phenyl)-3′H-spiro[dihydroindole-3,4′-pyrrolo[3,4-d]imidazole]-2,6′(5′H)-dione] |  |  | 2.52 | 8.83
10 | COc1cc(C)ncc1-c1nc2c(n1C(C)C)[C@@]1(C(=O)Nc3cc(Cl)ccc31)N(c1cc(Cl)ccc1C)C2=O [Example S-154, (S)-6-chloro-5′-(5-chloro-2-methylphenyl)-3′-isopropyl-2′-(4-methoxy-6-methylpyridin-3-yl)-3′H-spiro[dihydroindole-3,4′-pyrrolo[3,4-d]imidazole]-2,6′(5′H)-dione] |  |  | 0.9 | 22
11 | COc1ncc(-c2nc3c(n2C(C)C)C2(C(=O)Nc4cc(Cl)ccc42)N(c2cc(F)cc(Cl)c2)C3=O)c(OC)n1 (centres unmarked) [Example 45, 6-chloro-5′-(3-chloro-5-fluorophenyl)-2′-(2,4-dimethoxypyrimidin-5-yl)-3′-isopropyl-3′H-spiro[dihydroindole-3,4′-pyrrolo[3,4-d]imidazole]-2,6′(5′H)-dione] | better | better |  | 
12 | COc1cc(C(C)(C)C)ccc1-c1nc2c(n1C(C)C)[C@@]1(C(=O)Nc3cc(Cl)ccc31)N(c1cc(Cl)ccc1C)C2=O [Example S-101, (S)-2′-(4-(tert-butyl)-2-methoxyphenyl)-6-chloro-5′-(5-chloro-2-methylphenyl)-3′-isopropyl-3′H-spiro[dihydroindole-3,4′-pyrrolo[3,4-d]imidazole]-2,6′(5′H)-dione] |  |  | 9.86 | 48.5
13 | COc1cc(C)ccc1-c1nc2c(n1C(C)C)[C@]1(C(=O)Nc3cc(Cl)ccc31)N(c1cc(Cl)ccc1C)C2=O [Example R-24, (R)-6-chloro-5′-(5-chloro-2-methylphenyl)-3′-isopropyl-2′-(2-methoxy-4-methylphenyl)-3′H-spiro[dihydroindole-3,4′-pyrrolo[3,4-d]imidazole]-2,6′(5′H)-dione] |  |  | 392 | 872
14 | COc1cc(OC)c(-c2nc3c(n2C(C)C)[C@@]2(C(=O)Nc4cc(Cl)ccc42)N(c2cc(Cl)ccc2C)C3=O)cc1F [Example S-92, (S)-6-chloro-5′-(5-chloro-2-methylphenyl)-2′-(5-fluoro-2,4-dimethoxyphenyl)-3′-isopropyl-3′H-spiro[dihydroindole-3,4′-pyrrolo[3,4-d]imidazole]-2,6′(5′H)-dione] |  |  | 1.72 | 19.9
15 | COc1cc(N(C)C)ncc1-c1nc2c(n1C(C)C)[C@@]1(C(=O)Nc3cc(Cl)ccc31)N(c1cccc(Cl)c1)C2=O [Example S-113, (S)-6-chloro-5′-(3-chlorophenyl)-2′-(6-(dimethylamino)-4-methoxypyridin-3-yl)-3′-isopropyl-3′H-spiro[dihydroindole-3,4′-pyrrolo[3,4-d]imidazole]-2,6′(5′H)-dione] |  |  | 1.25 | 26.7
16 | COc1cc(C(N)=O)ccc1-c1nc2c(n1C(C)C)[C@@]1(C(=O)Nc3cc(Cl)ccc31)N(c1cc(Cl)ccc1C)C2=O [Example S-77, (S)-4-(6-chloro-5′-(5-chloro-2-methylphenyl)-3′-isopropyl-2,6′-dioxo-5′,6′-dihydro-3′H-spiro[dihydroindole-3,4′-pyrrolo[3,4-d]imidazole]-2′-yl)-3-methoxybenzamide] |  |  | 1.86 | 535
17 | COc1cc(C2CC2)ncc1-c1nc2c(n1C(C)C)[C@]1(C(=O)Nc3cc(Cl)ccc31)N(c1cc(Cl)cnc1C)C2=O [Example R-143, (R)-6-chloro-5′-(5-chloro-2-methylpyridin-3-yl)-2′-(6-cyclopropyl-4-methoxypyridin-3-yl)-3′-isopropyl-3′H-spiro[dihydroindole-3,4′-pyrrolo[3,4-d]imidazole]-2,6′(5′H)-dione] |  |  | 214 | 6220
18 | COc1nc(OCC(F)F)ncc1-c1nc2c(n1C(C)C)[C@]1(C(=O)Nc3cc(Cl)ccc31)N(c1cc(Cl)ccc1C)C2=O [Example R-147, (R)-6-chloro-5′-(5-chloro-2-methylphenyl)-2′-(2-(2,2-difluoroethoxy)-4-methoxypyrimidin-5-yl)-3′-isopropyl-3′H-spiro[dihydroindole-3,4′-pyrrolo[3,4-d]imidazole]-2,6′(5′H)-dione] |  |  | 119 | 5740
19 | CCOc1ncc(-c2nc3c(n2C(C)C)[C@]2(C(=O)Nc4cc(Cl)ccc42)N(c2cc(F)cc(Cl)c2)C3=O)c(OC)n1 [Example R-180, (R)-6-chloro-5′-(3-chloro-5-fluorophenyl)-2′-(2-ethoxy-4-methoxypyrimidin-5-yl)-3′-isopropyl-3′H-spiro[dihydroindole-3,4′-pyrrolo[3,4-d]imidazole]-2,6′(5′H)-dione] |  |  | 679 | 2170
20 | COc1nc(OC(C)C)ncc1-c1nc2c(n1C(C)C)[C@@]1(C(=O)Nc3cc(Cl)ccc31)N(c1cc(Cl)cnc1C)C2=O [Example S-136, (S)-6-chloro-5′-(5-chloro-2-methylpyridin-3-yl)-2′-(2-isopropoxy-4-methoxypyrimidin-5-yl)-3′-isopropyl-3′H-spiro[dihydroindole-3,4′-pyrrolo[3,4-d]imidazole]-2,6′(5′H)-dione] |  |  | 2.35 | 108
21 | CCc1ccc(Cl)cc1N1C(=O)c2nc(-c3cnc(OC)nc3OC)n(C(C)C)c2[C@]12C(=O)Nc1cc(Cl)ccc12 [Example R-15, (R)-6-chloro-5′-(5-chloro-2-ethylphenyl)-2′-(2,4-dimethoxypyrimidin-5-yl)-3′-isopropyl-3′H-spiro[dihydroindole-3,4′-pyrrolo[3,4-d]imidazole]-2,6′(5′H)-dione] |  |  | 107 | 840
22 | COc1cc(C2CC2)ncc1-c1nc2c(n1C(C)C)[C@@]1(C(=O)Nc3cc(Cl)ccc31)N(c1cccc(Cl)c1)C2=O [Example S-106, (S)-6-chloro-5′-(3-chlorophenyl)-2′-(6-cyclopropyl-4-methoxypyridin-3-yl)-3′-isopropyl-3′H-spiro[dihydroindole-3,4′-pyrrolo[3,4-d]imidazole]-2,6′(5′H)-dione] |  |  | 2.59 | 33.5
